Data taken from paper PMC11079064, “Discovery of a brain penetrant small molecule antagonist targeting LPA1 receptors to reduce neuroinflammation and promote remyelination in multiple sclerosis” (Scientific Reports, 2024).
“Also recorded” adds a separate entry of the source. Like-named read-outs stand apart in the source and are kept apart here.

Assays:
[1] = test system: mouse cortical brain slices; test: Lysolecithin-treated mouse organotypic slice culture, MBP and Caspr immunostaining; type: cell-based; details: then 5 days treatment
Description: Slices were also evaluated using a histological endpoint. […] Caspr clustering was used as a marker for nodes of Ranvier formation which implicates the presence of functional axons that have responded to myelination[39],[40].
Immunohistological evaluation of MBP and Caspr in mouse brain slice culture: Brain slices were cultured as described above. After compound treatment, slices were fixed in 4% PFA for 30 m, blocked in 10% donkey serum, 0.2% Triton X-100, followed by overnight incubation in primary antibodies in blocking solution. Antibodies used were MBP (rat, 1:500, Millipore, Temecula, CA), Caspr (rabbit 1:250 Abcam, Fremont, CA) Tuj1 (mouse, 1:500, Biolegend, San Diego, CA). Slices were washed with 3 × 15 m PBS followed by incubation with secondary antibodies (anti-rat, Alexa488; anti-rabbit, Alexa568, anti-mouse, Alexa647, Hoechst counterstain) in blocking buffer. All secondary antibodies were produced in donkey (Invitrogen, Carlsbad, CA, Carlsbad, CA) and used at 1:250. Filters were excised from insert, mounted with Fluoromount (Millipore Sigma, St. Louis) on a microscope slide and coverslipped. […] Image analysis was performed using ImageJ. MBP was expressed as MBP surface area normalized to Hoechst cell count; Caspr was expressed as the number of Caspr puncta normalized to Tuj1 intensity.

rat OPCs = test: OPC differentiation assay (PDGF withdrawal, MBP+ oligodendrocytes); type: cell-based; details: PDGF removed, 3 days treatment, percent of T3 induced differentiation; read-out: EC50 of increase in differentiated MBP+ oligodendrocytes
Description: Given the expression of Lpar1 on OPCs, we wanted to know how direct, exogenous application of LPA would affect OPC differentiation. Using the same PDGF withdrawal paradigm to induce OPC differentiation, we added various concentrations of LPA to the culture media and quantified MBP^+ oligodendrocytes 3 days later.
Primary rat OPCs were isolated and cultured in the presence of PDGF. One day later, PDGF was removed and various doses of PIPE-791 were added to the cultures. These cultures were fixed 3 days post-PIPE-791 treatment and immunostained for MBP.
OPC isolation: For immunopanning purification of OPCs, cortical hemispheres were dissected from postnatal day 8 Sprague–Dawley rat pups. Tissue culture dishes were incubated overnight with goat IgG secondary antibodies to mouse (Jackson Laboratories, Bar Harbor, ME). Dishes were rinsed and incubated at room temperature with primary antibodies for Ran-2, GalC and O4 (gift from Jonah Chan lab). Rodent cortical hemispheres were minced and dissociated with papain (Thermo Fisher, Waltham, MA) for 1 h at 37°. After dissociation, cells were resuspended in a panning buffer (0.2% BSA in DPBS) and incubated at room temperature sequentially on three immunopanning dishes: Ran-2 and GalC were used for negative selection before positive selection with O4. […]

[2] = Plasma concentration time course after oral dose; type: in vivo; details: 3 mg/kg oral, mouse
MOG-EAE mouse model = test: MOG-EAE mouse model, IBA1 immunostaining of spinal cord; type: in vivo; details: 3 mg/kg
Description: A lower lumbar segment of spinal cord was transferred from the EM fixative to 30% sucrose overnight and then sectioned using a sliding microtome. The resulting sections were stored in 30% sucrose in 0.1 M Phosphate Buffer pH 7.4 and stored at 4 °C. Free-floating spinal cord sections were rinsed with PBS, blocked with 5% normal goat serum in 0.1% Triton-X/PBS for 2 h, and subsequently incubated with antibodies against IBA1 (Life Technologies, Carlsbad, CA, 1:500) or CD3 (Abcam, Waltham, MA, 1:500) overnight at 4 °C. Sections were then washed 3 times with 0.1% triton-X/PBS and transferred to secondary antibody (1:500, Carlsbad, CA) in 0.1% Triton-X/PBS for 2 h at room temperature. Hoechst 33342 was diluted 1:2000 and added during the final wash step. Sections were stained with 1% Sudan Black in 70% ethanol, and washed 3 × 5 min in PBS. Stained sections were mounted onto slides and evaluated using a Nikon A1R confocal microscope and analyzed using Nikon NIS Elements software. Regions of interest (ROIs) were selected based on the largest contiguous lesion defined by Hoechst and Sudan Black co-staining. […] Cells were counted using the automatic General Analysis function in NIS Elements.
Supplemental Figure 9. […] Left, IBA1^+ area was quantified and normalized to Hoechst counts (* p = 0.0166, *** p=0.0002, mean ± SEM, ANOVA with Tukey’s, n>4). […]

Q: For COc1ccc(NC(=O)N(c2ccccc2C(C)C)C2CCC(C(=O)O)CC2)c(OC(F)F)n1 (stereo not drawn) [PIPE-791], which EC50 ([1]; read-out: EC50 of MBP+ area increase) is on record?
A: 0.074 µM

Q: And the EC50 ([1]; read-out: EC50 of increase in number of Caspr puncta)?
A: 0.0179 µM

Q: And the EC50 (rat OPCs)?
A: 0.108 µM

Q: And the “plasma concentration after 3 days” value [2]?
A: below the limit of detection

Q: And the “time of peak plasma concentration” value [2]?
A: 2 h

Q: What about the “level of IBA1+ staining in spinal cord” value (MOG-EAE mouse model) of the same compound?
A: reduces IBA1^+ area; also recorded: significantly reduced
